Measurements as given in article PMC6003898 (EJNMMI Research, 2018).

What was measured:
[1] = tested on: human U87-MG glioblastoma tumor xenografts in the flank; conditions: mouse, iv
Experimental: Animals were sacrificed by cervical dislocation 60 min after injection. Various tissues (tumor, liver, heart, brain, and kidney) were dissected, weighed, and counted in a calibrated gamma counter (Wizard, PerkinElmer, France). The results were expressed as percentages of injected dose and per gram of tissue (% ID/g).

[2] = tested on: human U87-MG glioblastoma tumor xenografts in the flank; experiment: in vivo; conditions: mouse
Experimental: (§1) Tumor xenografts were obtained in mice flanks as described previously. Six-week-old female immunodeficient (nu/nu) NMRI mice, weighing 20–25 g, were obtained from Janvier Laboratories (Le Genest Saint Isle, France) and housed in ventilated cages including filter tops with an ad libitum access to food and water. Two xenograft tumors were induced in all mice through subcutaneous flank injections of 2.10^6 of human U87-MG cells. Tumor growth was assessed twice weekly, according to tumor volume (in mm^3) calculated with the formula d2 × D/2, where d and D represent the shortest and longest diameters, respectively, calculated in millimeter with a caliper (decrescent PRC, EDVC, France).
(§2) At the end of the 2nd PET recording, the animals were sacrificed by inhalation of 5% of isoflurane followed by cervical dislocation. Tumors were subsequently surgically removed for further histopathological analysis.
(§3) List-mode acquisitions of 120 min durations were initiated a few seconds prior to tracer injection, and the acquired PET data were subsequently reconstructed in 27 consecutive frames (i.e., 5 frames of 120-s duration followed by 22 frames of 5-min duration) using the ordered-subsets expectation maximization 3D algorithm (OSEM3D, 4 iterations, 16 subsets, zoom 1) together with scatter and attenuation corrections based on transmission source measurement. The final voxel size was 0.8 × 0.8 × 0.9 mm^3.
(§4) Tumor and of various organ activities were determined through SUV mean values within 3D regions of interests (ROI), which were drawn with a dedicated software (Inveon Research Workplace 4.1, Siemens®, Knoxville, USA) on the fusion images encompassing the entire 120-min recording period. Spheroid ROIs were placed inside the liver, brain, and kidney regions with the ROI limits approximating the organ limits as close as possible. Tumor and heart ROIs were obtained with isocontour ROIs and threshold limits of 50 and 80%, respectively, of the maximal voxel value.

[3] = tested on: human U87-MG glioblastoma tumor xenografts in the brain; experiment: in vivo; conditions: rat
Text: (§5) Briefly, 8-week-old athymic male nude rats (180–220 g), (Hsd: RH-Foxn1rnu; Envigo, Gannat, France), were anesthetized with a mixture of air and 1.5–2% isoflurane and were placed in a Kopf stereotactic frame (900 M Kopf Instruments, Tujunga, CA). After a scalp incision, a burr hole was drilled 0.5 mm anterior and 2.7 mm lateral to bregma and a skull anchor (Patent N° 11 55596) was affixed.

in vivo [4] = conditions: female, NMRI nu/nu, mouse, iv, 6 MBq, total radioactivity
Experimental: as §1, §2, §3, §4

in vivo [5] = conditions: male, athymic nude (Hsd: RH-Foxn1rnu), rat, total radioactivity
Text: as §5

| SMILES | tumor-to-normal brain ratio (ex vivo biodistribution data, gamma counter) [1] | course of tumor uptake with time [2] | route of tracer clearance [2] | tumor-to-normal brain ratio (PET imaging) [2] | mean tumor activity (SUVmean) ([2]; iv) | tumor activity relative to contralateral normal brain [3] | SUV at 1 h (in vivo [4]) | SUV (in vivo [5]; SUVmean_ contralateral normal brain) | SUV (in vivo [5]; SUVmean_Tumor) |
| --- | --- | --- | --- | --- | --- | --- | --- | --- | --- |
| OC[C@H]1OC(O)[C@H](F)[C@@H](O)[C@@H]1O (stereo partly shown) [^18F-FDG, ^18F-fluorodeoxyglucose] | 0.61 ± 0.2 %ID/g | progressive enhancement | primary renal route of tracer clearance | 1.5 ± 0.37 | 1.19 ± 0.33 | 1.62 ± 0.15 | – | – | – |
| N=C(N)NCCC[C@@H]1NC(=O)[C@H](CCCCNC(=O)CCC(C(=O)O)N2CCN(CC(=O)O)CCN(CC(=O)O)CC2)NC(=O)[C@@H](Cc2ccc(O)cc2)NC(=O)[C@H](CC(=O)O)NC(=O)CNC1=O (stereo partly shown) [^68Ga-NODAGA-RGD, metal not drawn] | – | – | primary renal route of tracer clearance | – | – | – | 0.23 ± 0.04 SUV | 0.1 SUV | 0.5 SUV |
